By inhibition in vivo is commonly meant the share of the control response that was lost under treatment.

This is an account of results in patent publication US20110245528A1, “THERAPEUTIC COMPOUNDS” (priority 2008, published 2011).

Molecules are shown by their SMILES.

The subject of one assay is Lewis rats. Put plainly: Rat Collagen-induced Arthritis (rCIA) Model. The class given is in vivo. Particulars: paw swelling, bovine type II collagen-induced arthritis, oral gavage 0.3 mg/kg BID from day 8, day of peak disease, typically day 17. How it is done:
Two-month-old, female Lewis rats (Charles River Labs) were anesthetized with 3-5% isoflurane and arthritis was induced by intradermal injection of 0.3 ml (100 μl at three different sites) of an emulsion containing 1.5 mg/ml of bovine type II collagen (CII) (Elastin Products Co. Inc. Owensville, Mo.) in Incomplete Freund's Adjuvant (IFA) (Difco Laboratories, Detroit, Mich.) on day 0 at the base of the tail using a 30 gauge needle. A second injection was given on day 6. Control rats were injected with an equal amount of IFA only.
Test compounds of Formula I are formulated by diluting concentrated ethanol stock solutions with phosphate buffered saline (PBS) and dosed by oral gavage at 0.3 mg/kg twice a day (BID). Dosing was initiated on day 8 and continued to the end of the study, generally day 19 or day 20. Control animals were administered PBS alone.
The volume of both hind paws were measured using a water displacement plethysmometer (Ugo Basile, Biological Research Apparatus, Italy), and the onset of arthritis was indicated by increased paw volume, which appears approximately on day 11 post injection. Both paw volumes and body weights are measured throughout the study every 2-3 days. Nineteen to twenty-one days after CII injection, the rats are euthanized with CO2. Blood is collected by cardiac puncture and serum is saved. Both hind ankles are collected in 10% buffered formalin and saved (they can later be processed for histology).
Percent inhibition values were measured as follows. First, the magnitude of disease effect was calculated by taking the difference in paw swelling between control animals and animals that had not been administered CII (“untreated effect”). Then, the difference is paw swelling between the compound-treated animals and the animals that had not been administered CII was determined (“treated effect”). The difference between the untreated effect and the treated effect is then divided by the […] and multiplied by 100 to arrive at percent inhibition. Percent inhibition reported was from day of “peak” or maximal disease (manifested by maximum paw swelling), typically day 17.

In a further assay the test system is Balb/c mice. Put plainly: Murine Delayed-type-Hypersensitivity (DTH) Model. The format is in vivo. As to conditions: Mus musculus, iv; ear swelling after DNFB challenge; 0.3 mg/kg intravenously once daily; measured within 24 to 48 hours after ear challenge. As for the experimental part: Balb/c mice were sensitized by application of 20 μl of 0.5% of DNFB dissolved in acetone/olive oil to their footpads on day 0 and day 1. On day 5 animals are dosed intravenously with 0.3 mg/kg of test compound (or a negative control). Fifteen minutes later, 10 μl of 0.8% of DNFB dissolved in acetone/olive oil is topically applied externally on the right ear of the animal. As a control, the left ear is treated the same way with vehicle alone (acetone/olive oil).
The compounds (controls and test) are administered once daily until the completion of the study.
Within 24 to 48 hours after ear challenge, animals are anesthetized with isoflurane and the ear swelling is measured using a micrometer. The micrometer calipers are closed around the top portion of the each external ear until resistance from the ear is felt. Usually, the peak of the ear swelling happens around 48 hours after challenge.
Percent inhibition is determined in a similar manner as described for the CII model, above.

Turning to `C#CC[C@@H](O)/C=C/C=C/C#CC(F)(F)CCCC(=O)O` [Compound 320], the inhibition in vivo at 0.3 mg/kg in the assay on Lewis rats was 18%; in the assay on Balb/c mice, 35%.
Molecule `O=C(O)CCC[C@H](O)C#C/C=C/C=C/[C@H](O)CC#Cc1ccc(F)cc1` [Compound 306] registered an inhibition in vivo at 0.3 mg/kg in the assay with Balb/c mice of 16%.
Take `O=C(O)CCC[C@H](O)C#C/C=C/C=C/[C@H](O)Cc1ccc(F)cc1` [Compound 303]: the inhibition in vivo at 0.3 mg/kg in the assay on Lewis rats was determined as 0%; in the assay with Balb/c mice, 21%.
Consider `O=C(O)CC[C@H](O)C#C/C=C/C=C/[C@H](O)CC1CC1` [Compound 315], for which the inhibition in vivo at 0.3 mg/kg worked out at 7% with Lewis rats and 32% in the assay with Balb/c mice.
The matching figures for `C#CC[C@@H](O)/C=C/C=C/C#CCCCCC(=O)O` [Compound 301]: 11% and 15%.
The matching figures for `C#CCC/C=C/C=C/C#C[C@@H](O)CCCC(=O)O` [Compound 302]: 37% and 24%.
The like results for `C#CC[C@@H](O)/C=C/C=C/C#C[C@H](O)CCCC(=O)O` [Compound 323] were, in that order, 38% and 46%.
With `O=C(O)CCC[C@H](O)C#C/C=C/C=C/[C@H](O)CC1CC1` [Compound 304], the inhibition in vivo at 0.3 mg/kg came out at 28% with Lewis rats and 20% in the assay on Balb/c mice.
The like results for `C#CC[C@@H](O)/C=C/C=C/[C@@H]1C[C@@H]1[C@@H](O)CCCC(=O)O` [Compound 321] were, in that order, 10% and 32%.
In the case of `O=C(O)CCC[C@H](O)C#C/C=C/C=C/[C@H](O)CC#Cc1ccc(Cl)c(Cl)c1` [Compound 314], the inhibition in vivo at 0.3 mg/kg in the assay on Lewis rats was 27%; with Balb/c mice it was 28%.
